Reference: US10314883B2, “Compositions and methods for regulating blood pressure” (University of Virginia Patent Foundation, priority 2015, dated 2019)
Like-named read-outs stand apart in the source and are kept apart here.

How the values were obtained:
[1] = tested on: thoracodorsal arteries (TDA); experiment: tissue or blood; details: Mus musculus
mice = experiment: Cecal ligation puncture (CLP) model of sepsis; format: in vivo, mouse
Description: Knockout of Panx1 specifically from the endothelium or treatment of mice with PanX both reversed the decreased in heat rate typically observed after induction of sepsis. […] Knockout of Panx1 specifically from the endothelium or treatment of mice with PanX both reversed the increased level of blood urea nitrogen, which is due in large part to increased vein permeability in sepsis. The three groups in each graph are Control (left bar), Panx1 Endothelial Cell Knockout Mouse (middle bar), and Control+IL2 (PanX) Peptide treatment.

| Molecule | EC50 ([1]; read-out: EC50 of agonist for TDA constriction, TDAs from Cre^+/Panx1^FL mice, tamoxifen-injected (SMC Panx1 knockout)) [µM] | EC50 ([1]; read-out: EC50 of agonist for TDA constriction, TDAs from Cre^+/Panx1^WT mice, tamoxifen-injected) [µM] | EC50 ([1]; read-out: EC50 of agonist for TDA constriction, TDAs from Cre^−/Panx1^FL mice, tamoxifen-injected) [µM] | EC50 ([1]; read-out: EC50 of agonist for TDA constriction, TDAs from Cre^−/Panx1^WT mice, tamoxifen-injected) [µM] | effect on decreased heart rate after induction of sepsis (mice) | effect on increased blood urea nitrogen after induction of sepsis (mice) |
| --- | --- | --- | --- | --- | --- | --- |
| CNC[C@H](O)c1cccc(O)c1 [Phenylephrine, phenylephrine] | 7.84 ± 5.6 | 1.79 ± 1.13 | 0.64 ± 0.37 | 0.66 ± 0.13 |  |  |
| KYPIVEQYLKYGRKKQRRR [IL2] |  |  |  |  | reversed | reversed |
